# Patent EP3338775B1, “USE OF BUTYLIDENEPHTHALIDE” (Everfront Biotech Inc., priority 2015, dated 2017)
# Where “and” joins values, the source holds several entries; their conditions need not be identical. Equal values may be shown once.
# Assays:
# Format in all cases: cell-based
# brain CSCs ^CD133+ = test: MTT cell viability assay on brain CSCs CD133+
# Description: Thereafter, a cell viability assay, MTT assay, was utilized to analyze the viabilities of brain CSCs ^CD133+ and malignant glioma DBTRG cells. […]
# [1] = tested on: CD133, Sox-2 and Oct4 proteins; test: Western blotting of stemness-maintenance markers in brain CSCs CD133+; settings: BP 0, 12.5, 25, 50, 62.5 and 75 µg/ml for 24 hours; Figures 4 and 5
# Method: It has been known that CD44, CD133, Sox-2 (sex-determining region Y protein (SRY)-related high-mobility group box 2) and Oct4 (octamerbinding transcription factor 4) proteins all are stemness-maintenance markers of cancer stem cells and participate in the regulation of the self-renewal and differentiation of cancer stem cells. Brain CSCs ^CD133+ was treated with different concentrations (0, 12.5, 25, 50, 62.5 and 75 µg/ml) of BP for 24 hours, and then, proteins were extracted from the cells to conduct Western blotting to determine the expressions of CD133, Sox-2 and Oct4 proteins in the BP-treated brain CSCs ^CD133+. In addition, MiaPaCa-2 cell line (i.e., a cell line of pancreatic cancer cells) was treated with different concentrations (0, 12.5, 25, and 50 µg/ml) of BP for 24 hours, and then, proteins were extracted from the cells to conduct Western blotting to determine the expressions of Sox-2, CD133 and CD44 proteins in the BP-treated MiaPaCa-2 cells. […]
# Sox-2 and Oct4 proteins = test: Western blotting of stemness-maintenance markers in HNC-TIC-like oral stem cells; settings: BP 0, 12.5, 25 and 50 µg/ml for 24 hours; both cell lines; Figure 7
# ALDH = test: ALDEFLUOR flow cytometry analysis of ALDH activity in HNC-TIC-like oral stem cells; settings: group without DEAB addition; BP 0, 25 and 50 µg/ml for 24 hours; Figure 8
# Method: ALDH protein is also an important stemness-maintenance marker of cancer stem cells and participates in the regulation of the self-renewal and differentiation of cancer stem cells. HNC-TIC-like oral stem cells (i.e., ALDH1^+CD44^+-1 cell line or ALDH1^+CD44^+-2 cell line) were treated with different concentrations (0, 25 and 50 µg/ml) of BP for 24 hours, and then, 1 ×10^5 cells obtained from each group were separately suspended in 50 µl of a stem cell detection kit (i.e., ALDEFLUOR array kit, purchased from […] Technologies Inc., Vancouver, Canada) buffer and the cell suspension of each group was separately added with ALDEFLUOR to a final concentration of 1 µM. Thereafter, a sample of each group was stained by […] and then analyzed by flow cytometry analysis to determine the ALDH activity of HNC-TIC-like oral stem cells (i.e., ALDH1^+CD44^+-1 cell line and ALDH1^+CD44^+-2 cell line).
# The above experimental procedure was repeated, but the cell suspension of each group was further added with N,N-diethylaminobenzaldehyde (DEAB, i.e., an inhibitor of ALDH) to a final concentration of 150 µM of DEAB separately.
# [2] = tested on: E-cadherin, TGFβ-1 and Slug; test: Western blotting of EMT-related proteins in brain CSCs CD133+; settings: BP 0, 12.5, 25, 50, 62.5 and 75 µg/ml for 24 hours, Figure 12
# Method: In has been known that at the start of the epithelial-mesenchymal transition (EMT) of cancer stem cells, the expression of E-cadherin would reduce and the aggregation force between cancer stem cells would decrease, so that the cancer stem cells would gain great invasion and migration capacity and depart from the primary tumor, and thus, could metastasize. Brain CSCs ^CD133+ was treated with different concentrations (0, 12.5, 25, 50, 62.5 and 75 µg/ml) of BP for 24 hours, and then, proteins were extracted from the cells to conduct Western blotting to determine the expressions of E-cadherin, TGFβ-1 (with an ability to induce EMT) and Slug (i.e., a member of Snail family transcriptional repressors with a property of promoting the metastasis of cancer cells) proteins in the BP-treated brain CSCs ^CD133+.
# [3] = tested on: pcDNA3.0-neo brain CSCs ^CD133+; test: Wound healing assay with pcDNA3.0-neo brain CSCs CD133+; settings: without Axl overexpression; BP 0, 25, 50, 62.5, 75 and 100 µg/ml for 24 hours; Figure 14C
# Method: In this research, to further investigate whether the capability of BP in inhibiting the metastasis of cancer stem cells is related to Axl, brain CSCs ^CD133+ was transfected with pcDNA3.0-Axl plasmid and pcDNA3.0-neo plasmid respectively by using Lipofectmine 2000 transfection reagent. Then, the transfected brain CSCs ^CD133+ and un-transfected brain CSCs ^CD133+ were selected by 200 to 600 µg/ml G418 at the same time to obtain brain CSCs ^CD133+ having pcDNA3.0-Axl plasmid (hereinafter referred to as "pcDNA 3.0-Axl brain CSCs ^CD133+") or brain CSCs ^CD133+ having pcDNA3.0-neo plasmid (hereinafter referred to as "pcDNA3.0-neo brain CSCs ^CD133+"). Both pcDNA 3.0-Axl brain CSCs ^CD133+ and pcDNA3.0-neo brain CSCs ^CD133+ were observed and photographed with the use of a microscope. Then, proteins were extracted from both cells to conduct Western blotting to determine the expressions of Axl protein and β-actin in the BP-treated brain CSCs ^CD133+. Yet another, pcDNA 3.0-Axl brain CSCs ^CD133+ and pcDNA3.0-neo brain CSCs ^CD133+ were treated with different concentrations (0, 25, 50, 62.5, 75 and 100 µg/ml) of BP for 24 hours. At the same time, the phenomenon of pcDNA 3.0-Axl brain CSCs ^CD133+ and pcDNA3.0-neo brain CSCs ^CD133+ migrate to the wound was observed and photographed at 0 and 24 hours during the BP treatment.
structure (smiles),measurement,setting,value
"CCCC=C1OC(=O)c2ccccc21 [BP, butylidenephthalide]",viability of brain CSCs ^CD133+,"brain CSCs ^CD133+; 24-hour group and 48-hour group, BP 0-100 µg/ml, BCNU 0-1000 µM, Figure 1A, 1B",significantly decreased
same,IC50,"brain CSCs ^CD133+; 24 h, read-out: IC50 to brain CSCs ^CD133+",406 µM and 76.5 µg/mL
same,"expressions of CD133, Sox-2 and Oct4 proteins in brain CSCs ^CD133+",[1],significantly decreased
same,expressions of Sox-2 and Oct4 proteins in the HNC-TIC-like oral stem cells,Sox-2 and Oct4 proteins,significantly decreased
same,number of live cells with ALDH activity,ALDH,increased along with the increment in the concentration of BP
same,expression of E-cadherin protein,[2],significantly increased
same,expressions of TGFβ-1 and Slug proteins,[2],significantly decreased
same,number of pcDNA3.0-neo brain CSCs ^CD133+ migrated to the wound,[3],significantly decreased
